We go through 2 molecules from ChEMBL document CHEMBL5653615 (J Biol Chem, 2013).

The target in test [1] is T1, Ephrin type-B receptor 1 (Homo sapiens) (UniProt P54762).
T1 sequence (whole entry): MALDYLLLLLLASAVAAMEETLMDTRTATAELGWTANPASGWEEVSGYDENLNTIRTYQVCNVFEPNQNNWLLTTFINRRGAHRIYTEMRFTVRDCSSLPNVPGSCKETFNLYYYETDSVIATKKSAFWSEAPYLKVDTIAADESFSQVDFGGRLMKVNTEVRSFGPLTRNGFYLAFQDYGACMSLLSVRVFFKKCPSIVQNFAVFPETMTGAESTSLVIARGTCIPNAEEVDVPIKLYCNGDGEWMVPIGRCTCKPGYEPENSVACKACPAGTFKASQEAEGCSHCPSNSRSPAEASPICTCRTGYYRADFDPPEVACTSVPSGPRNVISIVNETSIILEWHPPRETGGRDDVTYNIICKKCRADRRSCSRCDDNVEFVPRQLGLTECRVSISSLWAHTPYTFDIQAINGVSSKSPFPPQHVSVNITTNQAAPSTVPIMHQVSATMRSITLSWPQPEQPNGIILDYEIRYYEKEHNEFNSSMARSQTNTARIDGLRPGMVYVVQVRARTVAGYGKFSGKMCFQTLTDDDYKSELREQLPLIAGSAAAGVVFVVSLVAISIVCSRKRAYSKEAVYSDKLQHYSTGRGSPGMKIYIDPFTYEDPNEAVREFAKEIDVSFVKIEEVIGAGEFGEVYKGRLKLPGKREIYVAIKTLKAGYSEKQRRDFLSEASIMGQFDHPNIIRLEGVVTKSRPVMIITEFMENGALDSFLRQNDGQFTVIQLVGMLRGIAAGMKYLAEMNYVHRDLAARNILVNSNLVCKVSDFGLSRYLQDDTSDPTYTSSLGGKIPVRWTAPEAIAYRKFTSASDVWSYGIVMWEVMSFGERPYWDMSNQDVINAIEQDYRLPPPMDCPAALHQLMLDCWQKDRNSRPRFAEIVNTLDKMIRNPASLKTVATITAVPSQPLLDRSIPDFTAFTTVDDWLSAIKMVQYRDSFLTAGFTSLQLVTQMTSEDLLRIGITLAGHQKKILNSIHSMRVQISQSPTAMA
Kind of test: Inhibition of human EPHB1 at 500 nM by HotSpot assay relative to control.

For test [2], the target named is G protein-coupled receptor kinase 5 (Homo sapiens) (UniProt P34947). As to the kind of experiment: Inhibition of human GRK5 at 500 nM by HotSpot assay relative to control.
Sequence of G protein-coupled receptor kinase 5 (Homo sapiens) (P34947 whole entry, looked up): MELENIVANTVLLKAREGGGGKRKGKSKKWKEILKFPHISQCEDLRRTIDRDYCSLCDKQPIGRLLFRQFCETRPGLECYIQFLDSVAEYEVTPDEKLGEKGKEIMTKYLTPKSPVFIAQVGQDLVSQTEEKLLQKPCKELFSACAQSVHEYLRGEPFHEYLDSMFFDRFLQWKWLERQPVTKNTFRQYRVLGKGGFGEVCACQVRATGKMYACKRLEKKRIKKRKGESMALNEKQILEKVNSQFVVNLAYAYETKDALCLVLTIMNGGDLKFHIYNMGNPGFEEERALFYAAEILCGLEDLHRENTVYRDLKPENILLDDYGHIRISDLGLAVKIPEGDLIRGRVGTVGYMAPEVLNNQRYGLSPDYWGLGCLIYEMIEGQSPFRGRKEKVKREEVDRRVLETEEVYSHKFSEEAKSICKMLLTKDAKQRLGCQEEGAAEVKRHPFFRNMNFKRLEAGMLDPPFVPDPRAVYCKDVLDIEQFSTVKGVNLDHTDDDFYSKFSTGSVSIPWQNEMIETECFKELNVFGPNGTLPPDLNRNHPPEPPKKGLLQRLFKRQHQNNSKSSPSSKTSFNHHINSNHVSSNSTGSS
For test [3], the target named is Mitogen-activated protein kinase kinase kinase kinase 5 (Homo sapiens) (UniProt Q9Y4K4). Kind of test: Inhibition of human KHS at 500 nM by HotSpot assay relative to control.
Sequence of Mitogen-activated protein kinase kinase kinase kinase 5 (Homo sapiens) (Q9Y4K4 whole entry, looked up): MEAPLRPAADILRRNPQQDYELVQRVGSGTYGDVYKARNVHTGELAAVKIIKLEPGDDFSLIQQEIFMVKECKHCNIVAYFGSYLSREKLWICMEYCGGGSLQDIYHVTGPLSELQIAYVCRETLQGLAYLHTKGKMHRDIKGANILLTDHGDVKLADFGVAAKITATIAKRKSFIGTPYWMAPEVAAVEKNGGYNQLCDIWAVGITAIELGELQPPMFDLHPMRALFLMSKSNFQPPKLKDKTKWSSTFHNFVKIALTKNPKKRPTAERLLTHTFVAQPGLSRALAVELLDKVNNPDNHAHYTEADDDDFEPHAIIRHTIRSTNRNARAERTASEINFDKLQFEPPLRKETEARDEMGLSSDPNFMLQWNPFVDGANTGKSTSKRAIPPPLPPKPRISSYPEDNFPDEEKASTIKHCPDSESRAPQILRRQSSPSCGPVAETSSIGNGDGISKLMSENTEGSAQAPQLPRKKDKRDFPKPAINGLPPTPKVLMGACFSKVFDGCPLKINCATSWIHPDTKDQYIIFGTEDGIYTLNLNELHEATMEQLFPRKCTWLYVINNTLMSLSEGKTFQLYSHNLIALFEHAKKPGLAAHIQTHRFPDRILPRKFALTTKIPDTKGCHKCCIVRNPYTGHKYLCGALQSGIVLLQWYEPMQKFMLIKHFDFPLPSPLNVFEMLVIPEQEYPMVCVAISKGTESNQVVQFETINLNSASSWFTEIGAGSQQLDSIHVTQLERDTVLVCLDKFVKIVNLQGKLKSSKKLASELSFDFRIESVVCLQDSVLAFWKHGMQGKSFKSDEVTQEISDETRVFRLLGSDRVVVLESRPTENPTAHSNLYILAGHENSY
For test [4], the target named is Tyrosine-protein kinase Lyn (Homo sapiens) (UniProt P07948). As to the kind of experiment: Inhibition of human LYN B at 500 nM by HotSpot assay relative to control.
Sequence of Tyrosine-protein kinase Lyn (Homo sapiens) (P07948 2-512 limits assumed): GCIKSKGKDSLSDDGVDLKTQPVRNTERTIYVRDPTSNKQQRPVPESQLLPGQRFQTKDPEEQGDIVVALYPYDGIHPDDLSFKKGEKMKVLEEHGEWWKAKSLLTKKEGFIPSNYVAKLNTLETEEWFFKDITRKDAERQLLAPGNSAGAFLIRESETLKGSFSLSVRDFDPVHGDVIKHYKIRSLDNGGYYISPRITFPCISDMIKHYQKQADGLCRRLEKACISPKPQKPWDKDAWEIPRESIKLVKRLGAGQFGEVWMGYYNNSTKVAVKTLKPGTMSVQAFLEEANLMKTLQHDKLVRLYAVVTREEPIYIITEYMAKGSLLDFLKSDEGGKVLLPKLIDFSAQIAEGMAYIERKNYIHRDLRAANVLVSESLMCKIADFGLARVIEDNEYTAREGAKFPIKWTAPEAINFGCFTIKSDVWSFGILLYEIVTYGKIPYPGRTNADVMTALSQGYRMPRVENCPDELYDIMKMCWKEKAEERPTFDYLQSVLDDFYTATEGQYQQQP
For test [5], the target named is T2, Serine/threonine-protein kinase Nek2 (Homo sapiens) (UniProt P51955).
T2 sequence (whole entry): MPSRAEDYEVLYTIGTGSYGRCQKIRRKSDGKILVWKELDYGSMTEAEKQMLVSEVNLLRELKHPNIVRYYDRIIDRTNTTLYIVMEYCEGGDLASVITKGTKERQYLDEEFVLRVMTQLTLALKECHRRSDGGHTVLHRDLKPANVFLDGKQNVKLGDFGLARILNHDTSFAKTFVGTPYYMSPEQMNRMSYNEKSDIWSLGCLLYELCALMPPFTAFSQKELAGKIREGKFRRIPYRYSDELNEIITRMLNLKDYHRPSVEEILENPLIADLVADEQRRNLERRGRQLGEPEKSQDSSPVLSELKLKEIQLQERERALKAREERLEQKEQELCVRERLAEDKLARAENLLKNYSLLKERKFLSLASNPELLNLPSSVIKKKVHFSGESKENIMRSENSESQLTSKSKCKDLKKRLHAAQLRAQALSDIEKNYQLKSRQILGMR
Kind of test: Inhibition of human NEK2 at 500 nM by HotSpot assay relative to control.

In test [6] the target is Serine/threonine-protein kinase PAK 6 (Homo sapiens) (UniProt Q9NQU5). Kind of test: Inhibition of human PAK6 at 500 nM by HotSpot assay relative to control.
Sequence of Serine/threonine-protein kinase PAK 6 (Homo sapiens) (Q9NQU5 whole entry, looked up): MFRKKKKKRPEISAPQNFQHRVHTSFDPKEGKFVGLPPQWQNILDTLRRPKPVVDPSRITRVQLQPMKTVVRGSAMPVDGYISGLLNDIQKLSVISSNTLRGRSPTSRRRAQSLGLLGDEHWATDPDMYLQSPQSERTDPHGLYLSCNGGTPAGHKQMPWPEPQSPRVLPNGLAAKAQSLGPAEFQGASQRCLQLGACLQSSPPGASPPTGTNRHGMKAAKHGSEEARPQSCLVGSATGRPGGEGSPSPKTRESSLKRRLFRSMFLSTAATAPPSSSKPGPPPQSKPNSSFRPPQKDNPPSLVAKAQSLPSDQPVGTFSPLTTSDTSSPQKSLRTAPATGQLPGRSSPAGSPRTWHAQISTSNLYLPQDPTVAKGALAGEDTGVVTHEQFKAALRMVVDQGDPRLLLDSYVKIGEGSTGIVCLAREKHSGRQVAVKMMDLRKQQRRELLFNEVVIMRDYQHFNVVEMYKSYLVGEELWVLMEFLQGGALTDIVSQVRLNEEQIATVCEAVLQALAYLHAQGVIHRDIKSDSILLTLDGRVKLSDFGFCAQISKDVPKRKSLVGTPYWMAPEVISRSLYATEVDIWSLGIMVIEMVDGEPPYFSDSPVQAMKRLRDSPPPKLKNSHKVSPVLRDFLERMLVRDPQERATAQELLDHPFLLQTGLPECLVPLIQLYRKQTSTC
Test [7] has as its target Serine/threonine-protein kinase N2 (Homo sapiens) (UniProt Q16513). Kind of test: Inhibition of human PRK2 at 500 nM by HotSpot assay relative to control.
The target in test [8] is T3, Serine/threonine-protein kinase TAO1 (Homo sapiens) (UniProt Q7L7X3).
T3 sequence (whole entry): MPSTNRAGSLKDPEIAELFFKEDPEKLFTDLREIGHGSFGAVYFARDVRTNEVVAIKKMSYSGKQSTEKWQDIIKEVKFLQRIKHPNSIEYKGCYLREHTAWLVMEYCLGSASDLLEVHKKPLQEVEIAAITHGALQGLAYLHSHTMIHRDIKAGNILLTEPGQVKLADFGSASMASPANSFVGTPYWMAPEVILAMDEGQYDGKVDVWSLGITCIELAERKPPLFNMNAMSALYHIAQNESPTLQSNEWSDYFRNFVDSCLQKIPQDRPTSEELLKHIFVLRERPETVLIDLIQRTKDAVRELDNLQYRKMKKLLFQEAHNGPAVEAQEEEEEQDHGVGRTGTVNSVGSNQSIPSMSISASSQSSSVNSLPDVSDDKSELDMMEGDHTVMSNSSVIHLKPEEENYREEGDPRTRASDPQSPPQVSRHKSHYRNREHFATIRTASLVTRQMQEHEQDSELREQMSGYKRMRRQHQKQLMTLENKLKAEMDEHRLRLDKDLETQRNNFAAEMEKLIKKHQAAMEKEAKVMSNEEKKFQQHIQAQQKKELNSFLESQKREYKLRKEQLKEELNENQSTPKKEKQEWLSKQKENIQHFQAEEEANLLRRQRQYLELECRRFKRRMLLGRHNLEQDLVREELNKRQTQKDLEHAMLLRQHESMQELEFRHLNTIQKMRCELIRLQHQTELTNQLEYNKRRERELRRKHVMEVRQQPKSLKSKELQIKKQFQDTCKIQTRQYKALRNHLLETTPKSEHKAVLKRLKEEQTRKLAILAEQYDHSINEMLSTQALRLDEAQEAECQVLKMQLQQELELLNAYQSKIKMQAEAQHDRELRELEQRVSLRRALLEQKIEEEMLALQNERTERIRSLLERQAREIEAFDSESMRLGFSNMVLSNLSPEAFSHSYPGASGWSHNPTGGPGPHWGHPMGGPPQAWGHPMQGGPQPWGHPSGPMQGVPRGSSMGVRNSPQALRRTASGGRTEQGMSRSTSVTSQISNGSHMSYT
As to the kind of experiment: Inhibition of human TAOK1 at 500 nM by HotSpot assay relative to control.

For the next test, the species on record is Homo sapiens. As to the kind of experiment: Inhibition of human TAO1 at 500 nM by HotSpot assay relative to control.
In test [9] the target is Death-associated protein kinase 3 (Homo sapiens) (UniProt O43293). As to the kind of experiment: Inhibition of human DAPK3 at 500 nM by HotSpot assay relative to control.
Sequence of Death-associated protein kinase 3 (Homo sapiens) (O43293 whole entry, looked up): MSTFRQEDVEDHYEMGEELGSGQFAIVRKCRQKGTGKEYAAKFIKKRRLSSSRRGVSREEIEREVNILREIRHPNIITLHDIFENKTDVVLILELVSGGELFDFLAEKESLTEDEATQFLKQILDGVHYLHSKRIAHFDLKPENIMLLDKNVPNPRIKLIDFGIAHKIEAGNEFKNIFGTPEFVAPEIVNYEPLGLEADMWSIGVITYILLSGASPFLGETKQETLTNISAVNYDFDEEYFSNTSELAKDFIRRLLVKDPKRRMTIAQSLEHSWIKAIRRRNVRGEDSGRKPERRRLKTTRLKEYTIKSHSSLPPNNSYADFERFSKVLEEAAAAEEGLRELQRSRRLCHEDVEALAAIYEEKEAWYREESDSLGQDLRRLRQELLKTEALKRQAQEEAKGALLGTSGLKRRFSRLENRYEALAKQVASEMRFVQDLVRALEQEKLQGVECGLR

Each structure is given as a SMILES string.

Sequence of Serine/threonine-protein kinase N2 (Homo sapiens) (Q16513 whole entry, looked up): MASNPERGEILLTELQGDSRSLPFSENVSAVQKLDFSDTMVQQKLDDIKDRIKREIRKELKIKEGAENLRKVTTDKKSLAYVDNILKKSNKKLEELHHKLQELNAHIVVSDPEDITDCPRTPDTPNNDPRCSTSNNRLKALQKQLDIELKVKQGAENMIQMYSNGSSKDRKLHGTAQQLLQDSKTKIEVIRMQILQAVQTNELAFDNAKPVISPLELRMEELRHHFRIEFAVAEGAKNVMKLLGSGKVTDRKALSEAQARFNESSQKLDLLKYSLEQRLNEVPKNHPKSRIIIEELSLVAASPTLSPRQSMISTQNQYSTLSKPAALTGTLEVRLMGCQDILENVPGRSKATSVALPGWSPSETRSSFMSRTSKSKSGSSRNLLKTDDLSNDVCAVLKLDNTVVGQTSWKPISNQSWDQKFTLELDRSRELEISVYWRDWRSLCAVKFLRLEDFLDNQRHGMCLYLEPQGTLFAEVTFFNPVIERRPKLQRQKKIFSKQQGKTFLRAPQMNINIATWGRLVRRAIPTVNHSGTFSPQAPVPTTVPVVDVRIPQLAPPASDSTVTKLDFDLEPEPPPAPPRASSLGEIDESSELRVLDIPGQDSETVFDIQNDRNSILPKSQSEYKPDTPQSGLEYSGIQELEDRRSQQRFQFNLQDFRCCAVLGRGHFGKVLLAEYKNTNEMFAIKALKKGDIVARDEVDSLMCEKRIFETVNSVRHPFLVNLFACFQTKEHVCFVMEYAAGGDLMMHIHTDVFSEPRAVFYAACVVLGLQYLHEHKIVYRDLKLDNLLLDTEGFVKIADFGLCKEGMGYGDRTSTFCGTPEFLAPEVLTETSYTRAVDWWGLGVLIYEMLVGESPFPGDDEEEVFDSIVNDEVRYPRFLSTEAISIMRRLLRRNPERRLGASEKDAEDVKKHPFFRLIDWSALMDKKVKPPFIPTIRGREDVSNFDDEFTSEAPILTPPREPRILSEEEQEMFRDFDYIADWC

For `Oc1n[nH]c2nnc(-c3c(-c4ccccc4)nn4ccccc34)cc12`, the inhibition was 2.52% in test [1]; -0.63% in [2]; 3.59% in test [3]; 2.89% in test [4]; -3.97% in test [5]; 1.63% in [6]. The inhibition is 1.9% in test [7], 1.61% in test [8], 1.69% in the test filed under Homo sapiens and -0.67% in test [9].

With `Nc1n[nH]c2nnc(-c3c(-c4ccccc4)nn4ccccc34)cc12`, the inhibition in [1] was 1.38%; in test [2] it was -6.2%; in [3] it was 49.7%; in test [4], 2.89%; in test [5] it was 4.69%; in [6], 3.58%. Further, the inhibition was 1.14% in [7], 4.2% in [8], -1.14% in the test filed under Homo sapiens and -2.11% in test [9].
